From paper PMC8307156, “Agelasine Diterpenoids and Cbl-b Inhibitory Ageliferins from the Coralline Demosponge Astrosclera willeyana” (Marine Drugs, 2021)

target: T1, Cbl-b ubiquitin ligase (N1/2 construct) (Homo sapiens, UniProt Q13191); test: Cbl-b biochemical assay (in vitro autoubiquitination ELISA, inhibition of ubiquitin ligase activity); conditions: in vitro enzymatic activity of Cbl-b ubiquitin ligase; 75-nM Cbl-b, 100 µM ATP, 60 min reaction; read-out: Cbl-b inhibitory activity IC50
T1 construct: 75-nM Cbl-b (N1/2 construct) [27]
T1 sequence (Q13191 1-483 limits assumed): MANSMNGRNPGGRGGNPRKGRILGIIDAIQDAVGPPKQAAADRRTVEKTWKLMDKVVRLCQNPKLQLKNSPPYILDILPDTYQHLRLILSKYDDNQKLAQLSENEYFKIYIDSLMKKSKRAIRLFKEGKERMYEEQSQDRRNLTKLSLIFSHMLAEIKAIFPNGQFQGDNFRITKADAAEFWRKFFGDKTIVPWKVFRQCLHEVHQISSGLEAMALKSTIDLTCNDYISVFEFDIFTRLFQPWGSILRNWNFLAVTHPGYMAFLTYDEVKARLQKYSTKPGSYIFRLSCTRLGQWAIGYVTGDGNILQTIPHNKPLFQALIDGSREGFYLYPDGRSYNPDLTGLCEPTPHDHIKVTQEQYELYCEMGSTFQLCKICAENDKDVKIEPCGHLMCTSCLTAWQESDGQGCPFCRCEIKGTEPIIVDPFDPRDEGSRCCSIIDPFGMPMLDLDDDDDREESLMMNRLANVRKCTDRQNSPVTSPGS
Method: Compounds 1–10 were tested for their ability to inhibit the in vitro enzymatic activity of the Cbl-b ubiquitin ligase (Table 3). […] There was no clear pattern of N-methylation or bromine substitution of the two pyrrole rings that directly correlated with the observed Cbl-b inhibitory activity.
An extract of Astrosclera willeyana was identified as an active source in a screening campaign of prefractionated natural product samples for the inhibition of Cbl-b ubiquitin ligase activity. The bulk extract was fractionated as described above, and the resulting fractions were evaluated for activity in the Cbl-b bioassay, the details of which have already been reported. In brief, dose response experiments with chromatography fractions and purified compounds were carried out in a Tris-HCl-based enzymatic assay buffer with the following final composition: 75-nM Cbl-b (N1/2 construct), 50-nM Ube2d2 protein (E2), 10-nM UBE1protein (E1), 50-nM biotinylated ubiquitin, and 0.5-µM unlabeled recombinant ubiquitin. The assay buffer also contained the following additives: 0.1-mM dithiothreitol, 0.5-mg/mL bovine gelatin (type B), 0.5-mM magnesium chloride, and 0.01% Triton X-100. Reactions were initiated by the addition of ATP to a final concentration of 100 µM. Following initiation, reactions were transferred to plates previously precoated overnight with 10 µg/mL of the polyubiquitin-binding domain of Cbl-b (UBA). The UBA domain of Cbl-b binds ubiquitin chains, which results in the capture and enrichment of autopolyubiquitinated Cbl-b. Following a reaction interval of 60 min, the reactions were quenched by the addition of zinc to a final concentration of 2.4 mM. Quenched reactions were incubated at room temperature overnight. Following this incubation period reaction, plates were processed as standard ELISA plates: washed thrice in Tris-buffered saline (with 0.1% Tween-20, 1X TBST), probed with avidin-conjugated horse radish peroxidase, which binds captured biotinylated ubiquitin, washed again in 1X TBST (3X), and then, an avidin-HRP-dependent fluorescent signal (indicating avidin-HRP/biotin-polyubiquitin complexes captured by the UBA coating on the plate) was detected (excitation 325 nm, emission 420 nm) using an Infinite M1000 (Tecan US, Inc., Raleigh, NC, USA) plate reader.

SMILES	IC50 [nM]
Cn1cc(Br)cc1C(=O)NC[C@H]1Cc2nc(N)[nH]c2[C@@H](c2c[nH]c(N)n2)[C@@H]1CNC(=O)c1cc(Br)c(Br)[nH]1 [Compound 9, N(1′)-methyl-2-bromoageliferin]	19000
CC(=CCn1cnc2c1c(N)nc[n+]2C)CCC1(C)C2=CCCC(C)(C)C2CCC1C (stereo not shown) [Compound 1, Agelasine W]	57000
Cn1cc(Br)cc1C(=O)NC[C@H]1Cc2nc(N)[nH]c2[C@@H](c2c[nH]c(N)n2)[C@@H]1CNC(=O)c1cc(Br)cn1C [Compound 8, N(1),N(1′)-dimethylageliferin]	19000
CNc1nc[n+](C)c2ncn(C/C=C(\C)CC[C@]3(C)C4=CCCC(C)(C)[C@H]4CC[C@H]3C)c12 [Compound 2, Agelasine X]	72000
Cn1cc(Br)cc1C(=O)NCC1C(CNC(=O)c2ccc(Br)[nH]2)Cc2[nH]c(N)nc2C1c1c[nH]c(N)n1 (stereo not shown) [Compound 4, N(1)-methylisoageliferin]	33000
CNc1nc[n+](C)c2ncn(C/C=C(\C)CC[C@@]3(C)[C@H](C)CC[C@]4(C)C(C)=CCC[C@H]34)c12 [Compound 3, Agelasine Y]	66000

More lines, now with the values ahead:

IC50 [nM]	SMILES
25000	Cn1c(Br)ccc1C(=O)NC[C@H]1Cc2nc(N)[nH]c2[C@@H](c2c[nH]c(N)n2)[C@@H]1CNC(=O)c1cc(Br)c[nH]1 [Compound 5, N(1′)-methylisoageliferin]
30000	Cn1cc(Br)cc1C(=O)NC[C@H]1Cc2nc(N)[nH]c2[C@@H](c2c[nH]c(N)n2)[C@@H]1CNC(=O)c1cc(Br)c[nH]1 [Compound 6, N(1′)-methylageliferin]
35000	Cn1c(C(=O)NC[C@H]2Cc3nc(N)[nH]c3[C@@H](c3c[nH]c(N)n3)[C@@H]2CNC(=O)c2cc(Br)c[nH]2)cc(Br)c1Br [Compound 10, N(1′)-methyl-2′-bromoageliferin]
18000	Cn1cc(Br)cc1C(=O)NC[C@@H]1[C@@H](CNC(=O)c2ccc(Br)n2C)Cc2nc(N)[nH]c2[C@H]1c1c[nH]c(N)n1 [Compound 7, N(1),N(1′)-dimethylisoageliferin]
